Reference: patent publication US5362729A, “Dihydropyridine derivatives useful in antitumor therapy” (Farmitalia Carlo ERBA S.r.l., priority 1991, dated 1994)
Where two headings read alike, the source gives them in different places.

Columns and labels:
[1] = orientative acute toxicity after single oral administration to mice; conditions: mouse, in vivo, assessed on the seventh day
Experimental: Mice which had been deprived of food for nine hours were treated orally with single administrations of increasing doses of compounds of the invention, then housed and normally fed. For example the orientative acut toxicity (LD50) of the compound FCE 24265, assessed on the seventh day after treatment, was higher than 800 mg/kg. In view of their low toxicity the compounds of the invention can be safely used in medicine.

LoVo/DX cells = test: single-cell plating technique, colony-inhibiting efficacy of Doxorubicin alone or in combination on Doxorubicin-resistant cells; format: cell-based, human
Experimental: (§1) LoVo and LoVo/DX cells (human colon adenocarcinoma cell lines sensitive and resistant to Doxorubicin, respectively) were maintained at 37° C. in a humidified atmosphere of 5% CO2. Culture medium was Ham's F12 supplemented with 10% foetal calf serum, 1% vitamins (BME vitamin solution 100 X), and 1% glutamine (200 mM). Both cell lines were passaged twice weekly.
(§2) Doxorubicin, from Farmitalia Carlo erba, was dissolved in sterile water, and the concentrations were checked spectro-photometrically. Solutions of the compounds of the invention using ethanol were prepared immediately before use.
(§3) A single-cell plating technique was utilized for measuring the colony-inhibiting efficacy of drugs alone or drug combinations.
(§4) Exponentially growing LoVo and LoVo/DX cells were adjusted to the concentration of 300 cells.ml^-1 and seeded in 36mm Petri dishes (2 ml/dish).
(§5) After 48h incubation, medium was withdrawn and solutions of invention compounds alone, or Doxorubicin alone or solutions of the combination of both compounds, were added. […]
(§6) Survival was determined as the percentage of colonies in treated samples vs untreated ones. For combination of the compounds of the invention and doxorubicin, survival was calculated using as controls the number of colonies in samples treated with compounds of the invention alone.

LoVo cells = test: single-cell plating technique, colony-inhibiting efficacy of Doxorubicin alone or in combination on Doxorubicin-sensitive cells; format: cell-based, human; conditions: Doxorubicin alone
Experimental: as §1, §2, §3, §4, §5, §6

Row | SMILES | LD50 at 168 h [1] [mg/kg] | R.I. (Resistance Index) (LoVo/DX cells; Doxorubicin alone, LoVo/DX vs LoVo cells, 240 min) | IC50 (LoVo/DX cells; Homo sapiens, LoVo/DX, 4 h, read-out: IC50 = Concentration inhibiting 50% of colony formation) [µg/mL] | IC50 (LoVo cells) [µg/mL] | IC50 (LoVo cells; Homo sapiens, LoVo, read-out: IC50) [µg/mL]
1 | CCOC(=O)C1=C(C)NC(C)=C(C(=O)OCC)C1c1cccc(-n2ccnc2)c1 [FCE 24265, 1,4-Dihydro-2,6-dimethyl-4-[3-(1H-imidazol-1-yl)phenyl]-3,5-pyridinedicarboxylic acid, diethyl ester] | > 800 |  |  |  | 
2 | COc1cccc2c1C(=O)c1c(O)c3c(c(O)c1C2=O)C[C@@](O)(C(=O)CO)C[C@@H]3O[C@H]1C[C@H](N)[C@H](O)[C@H](C)O1 [Doxorubicin] |  | 49.1 | 4.91 | 0.1 | ~0.1
